Measured values as given in patent publication US8796259B2, “N3-heteroaryl substituted triazoles and N5-heteroaryl substituted triazoles useful as axl inhibitors” (Rigel Pharmaceuticals, Inc., priority 2006, dated 2014).

Molecular target: T1, Axl (Homo sapiens, UniProt P30530)
T1 construct: endogenous in cells; host or cells: HeLa cells
T1 sequence (P30530 26-894): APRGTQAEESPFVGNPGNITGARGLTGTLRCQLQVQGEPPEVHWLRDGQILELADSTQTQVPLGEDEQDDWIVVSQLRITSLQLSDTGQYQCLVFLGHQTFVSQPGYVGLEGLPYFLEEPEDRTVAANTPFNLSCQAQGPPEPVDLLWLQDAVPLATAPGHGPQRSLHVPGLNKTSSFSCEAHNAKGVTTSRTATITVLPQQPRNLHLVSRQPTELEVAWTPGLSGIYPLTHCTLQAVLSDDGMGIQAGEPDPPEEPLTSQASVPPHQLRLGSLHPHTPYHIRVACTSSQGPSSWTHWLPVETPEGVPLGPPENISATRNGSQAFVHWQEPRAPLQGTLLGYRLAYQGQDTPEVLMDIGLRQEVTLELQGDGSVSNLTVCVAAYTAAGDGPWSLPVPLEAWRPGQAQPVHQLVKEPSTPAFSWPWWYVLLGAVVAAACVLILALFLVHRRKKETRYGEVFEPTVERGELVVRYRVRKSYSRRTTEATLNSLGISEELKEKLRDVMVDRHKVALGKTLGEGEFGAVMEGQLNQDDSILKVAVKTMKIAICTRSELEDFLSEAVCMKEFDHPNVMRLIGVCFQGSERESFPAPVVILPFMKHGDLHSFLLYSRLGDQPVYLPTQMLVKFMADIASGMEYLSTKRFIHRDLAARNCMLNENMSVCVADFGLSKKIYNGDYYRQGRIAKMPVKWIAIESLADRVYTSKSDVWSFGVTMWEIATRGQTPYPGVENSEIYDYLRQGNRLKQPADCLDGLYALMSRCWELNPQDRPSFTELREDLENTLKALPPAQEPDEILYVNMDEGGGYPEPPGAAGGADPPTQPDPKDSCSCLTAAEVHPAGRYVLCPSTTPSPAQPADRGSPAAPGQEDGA
Assay: Phospho-Akt in-cell Western assay (inhibition of Axl activity, Axl-antibody cross-linking stimulation)
Format: cell-based
Conditions: Hela cells, phospho-Akt readout; compounds of formula (Ia), Table 1
Description: The compounds of the invention were tested in the following assay for their ability to inhibit Axl activity.
Phospho-Akt in-Cell Western Assay
• Cell culture plate: 96 well assay plate (Corning 3610), white, clear bottom, tissue-culture treated. • Cells: Hela cells. • Starvation medium: For Axl stimulation: 0.5% FCS (fetal calf serum) in DMEM, plus Axl/Fc (extracellular domain of AXL fused to immunoglobulin Fc region) (R&D, 154-AL) 500 ng/mL. • For EGF (epidermal growth factor) stimulation: 0.5% FCS in DMEM (Dulbecco's modified Eagles medium). • Poly-L-Lysine 0.01% solution (the working solution): 10 μg/ml, dilute In PBS (phosphate buffered saline). • Axl antibody cross-linking: • 1st: Mouse anti-Axl (R&D, MAB154). • 2nd: Biotin-SP-conjugated AffiniPure goat anti-mouse IgG (H+L) (Jackson ImmunoResearch #115-065-003). • Fixing buffer: 4% formaldehyde in PBS. • Wash buffer: 0.1% TritonX-100 in PBS. • Quenching buffer: 3% H2O2, 0.1% Azide in wash buffer, Azide and hydrogen peroxide (H2O2) are added fresh. • Blocking buffer: 5% BSA in TBST (tris buffered saline plus 0.1% Tween 20). • Primary antibody: Rabbit anti-human Phospho-Akt antibody (Cell Signaling 9271): 1×250 diluted in blocking buffer. • Secondary antibody: HRP (horse radish peroxidase)-conjugated Goat anti-Rabbit secondary, stock solution: Jackson ImmunoResearch (Goat anti-Rabbit HRP, #111-035-144) 1:1 diluted in glycerol, store at −20° C. The working solution: 1×2000 dilution of stock in blocking buffer. • Chemiluminescent working solution (Pierce, 37030): SuperSignal ELISA (enzyme linked immunosorbant assay) Pico Chemiluminescent substrate. • Crystal Violet solution: Stock: 2.5% Crystal violet in methanol, filtered and kept at ambient temperature. The working solution: dilute the stock 1:20 with PBS immediately before use.
10% SDS: working solution: 5% SDS (sodium dodecylsulfate), diluted in PBS
A 96 well TC (tissue culture treated) plate was coated with 10 μg/mL poly-L-Lysine at 37° C. for 30 min, washed twice with PBS, and air-dried for 5 minutes before cells were added. Hela cells were seeded at 10,000 cells/well and the cells were starved in 100 μL starvation medium containing Axl/Fc for 24 hrs.
The cells were pre-treated with test compounds by adding 100 μL of 2× test compound to the starvation medium on the cells. The cells were incubated at 37° C. for 1 hr before stimulation.
The cells were stimulated by Axl-antibody cross-linking as follows: A 5×1st/2nd Axl antibody mixture was made (37.5 μg/mL 1st/100 μg/mL 2 nd) in starvation medium and nutated at 4° C. with thorough mixing for 1-2 hours for clustering. The resulting mix was warmed to 37° C. 50 μL of 5×Axl 1st/2nd of antibody cluster was added to the cells and the cells were incubated at 37° C. for 5 min.
After 5 minutes stimulation, the plate was flicked to remove medium and the plate was tapped onto paper towels. Formaldehyde (4.0% in PBS, 100 μL) was added to fix the cells and the cells were incubated at ambient temperature for 20 min without shaking.
The cells were washed with a plate washer buffer to remove the formaldehyde solution. The plate was flicked to removed excess wash buffer and tapped onto paper towels. Quenching buffer (100 μL) was added to each well and the cells were incubated at ambient temperature for 20 minutes without shaking.
The cells were washed with a plate washer buffer to remove the quenching buffer. Blocking buffer (100 μL) was added and the cells were incubated at ambient temperature for at least an hour with gentle shaking.
The cells were washed with a plate washer buffer and diluted primary antibody (50 μL) was added to each well (blocking buffer was added to the negative control wells instead). The plates were incubated overnight at 4° C. with gentle shaking.
The wash buffer was removed, diluted secondary antibody (100 μL) was added, and the cells were incubated at ambient temperature for 1 hour with gentle shaking. […]

Row | IC50 [µM] | Compound
1 | < 1 | Cc1cc(Nc2nc(N)n(-c3nc(Cl)nc4c(C)csc34)n2)cnc1N1CCC(N2CCCC2)CC1 [compound 41, 1-(2-chloro-7-methylthieno [3,2-d]pyrimidin-4-yl)-N^3-(6-(4-(pyrrolidin-1-yl)piperidin-1-yl)-5-methylpyridin-3-yl)-1H-1,2,4-triazole-3,5-diamine]
2 | < 1 | Cc1csc2c(-n3nc(Nc4ccc(N5CCN(CC6CC6)CC5)nc4)nc3N)ncnc12 [compound 89, 1-(7-methylthieno [3,2-d]pyrimidine-4-yl)-N^3-(6-(4-(cyclopropyl-methyl)piperazin-1-yl)pyridine-3-yl)-1H-1,2,4-triazole-3,5-diamine]
3 | < 1 | Cc1csc2c(-n3nc(Nc4cnc5c(c4)CC(NC4CCN(C)CC4)CC5)nc3N)ncnc12 (stereo not shown) [compound 84, 1-(7-methylthieno [3,2-d]pyrimidin-4-yl)-N^3-(6-(1-methyl-piperidin-4-ylamino)-5,6,7,8-tetrahydro-quinolin-3-yl)-1H-1,2,4-triazole-3,5-diamine]
4 | > 20 | CCOC(=O)N1CCc2ncc(Nc3nc(N)n(-c4nc(Cl)nc5c(C)csc45)n3)cc2C1 [compound 19, 1-(2-chloro-7-methylthieno [3,2-d]pyrimidine-4-yl)-N^3-(6-(ethylcarboxy)-5,6,7,8-tetrahydro-1,6-naphthyridin-3-yl)-1H-1,2,4-triazole-3,5-diamine]
5 | < 1 | Cc1csc2c(-n3nc(Nc4cnc5c(c4)CNCC5)nc3N)nc(Cl)nc12 [compound 25, 1-(2-chloro-7-methylthieno [3,2-d]pyrimidine-4-yl)-N^3-(5,6,7,8-tetrahydro-1,6-naphthyridin-3-yl)-1H-1,2,4-triazole-3,5-diamine]
6 | < 1 | Cc1csc2c(-n3nc(Nc4cnc5c(c4)CC(N(CC4CC4)CC4CC4)CC5)nc3N)nc(Cl)nc12 (stereo not shown) [compound 104, 1-(2-chloro-7-methylthieno [3,2-d]pyrimidin-4-yl)-N^3-(6-bis-(cyclo-propylmethyl)amino-5,6,7,8-tetrahydro-quinolin-3-yl)-1H-1,2,4-triazole-3,5-diamine]
7 | > 20 | COc1cc2ncnc(-n3nc(Nc4ccc(Br)nc4)nc3N)c2cc1OC [compound 59, 1-(6,7-dimethoxy-quinazoline-4-yl)-N^3-(6-bromopyridin-3-yl)-1H-1,2,4-triazole-3,5-diamine]
8 | < 1 | Cc1csc2c(-n3nc(Nc4cnc5c(c4)CC(N)CC5)nc3N)nc(Cl)nc12 (stereo not shown) [compound 30, 1-(2-chloro-7-methylthieno [3,2-d]pyrimidin-4-yl)-N^3-(6-amino-5,6,7,8-tetrahydro-quinolin-3-yl)-1H-1,2,4-triazole-3,5-diamine]
9 | < 1 | CCN(CC)C1CCN(C/C=C/c2ccc(Nc3nc(N)n(-c4ncnc5c(C)csc45)n3)cn2)C1 (stereo not shown) [compound 121, 1-(7-methylthieno [3,2-d]pyrimidin-4-yl)-N^3-(2-(3-(3-diethyl-amino-pyrrolidin-1-yl)propen-1-yl)pyridin-5-yl)-1H-1,2,4-triazole-3,5-diamine]
10 | < 1 | COc1cc2ncnc(-n3nc(Nc4ccc5c(c4)OCCO5)nc3N)c2cc1OC [compound 5, N^3-(2,3-dihydrobenzo [b][1,4]dioxin-6-yl)-1-(6,7-dimethoxy-quinazolin-4-yl)-1H-1,2,4-triazole-3,5-diamine]
11 | < 1 | COc1cc2ncnc(-n3nc(Nc4ccc(C=CCN5CCC(N6CCCCC6)CC5)nc4)nc3N)c2cc1OC [compound 67, 1-(6,7-dimethoxy-quinazoline-4-yl)-N^3-(6-(3-(4-piperidin-1-ylpiperidin-1-yl)propenyl)pyridin-3-yl)-1H-1,2,4-triazole-3,5-diamine]
12 | < 1 | Cc1csc2c(-n3nc(Nc4ccc(C=CCN5CCN(C(C)C)CC5)nc4)nc3N)ncnc12 [compound 124, 1-(7-methylthieno [3,2-d]pyrimidin-4-yl)-N^3-(2-(3-(4-isopropyl-piperazin-1-yl)propen-1-yl)pyridin-5-yl)-1H-1,2,4-triazole-3,5-diamine]
13 | < 1 | Cc1csc2c(-n3nc(Nc4cnc5c(c4)CN(C4CCN(C)CC4)CC5)nc3N)nc(Cl)nc12 [compound 86, 1-(2-chloro-7-methylthieno [3,2-d]pyrimidine-4-yl)-N^3-(6-(1-methyl-piperidin-4-yl)-5,6,7,8-tetrahydro-1,6-naphthyridin-3-yl)-1H-1,2,4-triazole-3,5-diamine]
14 | > 20 | COc1cc2ncnc(-n3nc(Nc4cnc(N5CCC(N6CCCC6)CC5)nc4)nc3N)c2cc1OC [compound 62, 1-(6,7-dimethoxy-quinazoline-4-yl)-N^3-(2-(4-pyrrolidin-1-ylpiperidin-1-yl)pyrimidin-5-yl)-1H-1,2,4-triazole-3,5-diamine]
15 | < 1 | Cc1cc(Nc2nc(N)n(-c3cc(-c4ccccc4)ncn3)n2)cnc1N1CCC(N2CCCC2)CC1 [compound 130, 1-(6-phenyl-pyrimidine-4-yl)-N^3-(3-methyl-2-(4-pyrrolidin-1-ylpiperidin-1-yl)pyridin-5-yl)-1H-1,2,4-triazole-3,5-diamine]
16 | < 1 | Cc1csc2c(-n3nc(Nc4ccc(C=CCN5CCN(C)CC5)nc4)nc3N)ncnc12 [compound 123, 1-(7-methylthieno [3,2-d]pyrimidin-4-yl)-N^3-(2-(3-(4-methyl-piperazin-1-yl)propen-1-yl)pyridin-5-yl)-1H-1,2,4-triazole-3,5-diamine]
17 | < 1 | COc1cc2ncnc(-n3nc(Nc4ccc(C=CCN5CCCCC5)nc4)nc3N)c2cc1OC [compound 80]
18 | < 1 | Cc1cc(Nc2nc(N)n(-c3nc(Cl)nc4c(C)csc34)n2)cnc1N1CCN([C@H]2CC3CCC2C3)[C@@H](C)C1 (stereo partly drawn) [compound 107, 1-(2-chloro-7-methylthieno [3,2-d]pyrimidin-4-yl)-N^3-(2-(3-(S)-methyl-4-(2S)-bicyclo[2.2.1]heptan-2-ylpiperazin-1-yl)-3-methylpyridin-5-yl)-1H-1,2,4-triazole-3,5-diamine]

Same assay, conditions: Hela cells, phospho-Akt readout; compounds of formula (Ib), Table 2

Row | IC50 [µM] | Compound
19 | 1 to 10 | Cc1cc(Nc2nc(N)nn2-c2nc(Cl)nc3c(C)csc23)cnc1N1CCC(N2CCCC2)CC1 [compound 92, 1-(2-chloro-7-methylthieno[3,2-d]pyrimidin-4-yl)-N^5-(6-(4-(pyrrolidin-1-yl)piperidin-1-yl)-5-methylpyridin-3-yl)-1H-1,2,4-triazole-3,5-diamine]
